Experiments:
MAT2A homodimer = biological target: T1, MAT2A homodimer (Homo sapiens, UniProt P31153); assay: MAT2A biochemical assay (liberated phosphate, PiColorLock Gold); settings: Table 5a; MAT2A biochemical assay; read-out: Enzyme Inhibition
T1 construct: inferred from the Ni sepharose purification and imidazole elution; made in house; host or cells: SF9 insect cells, recombinant baculovirus (Bac to Bac, pFASTBAC1)
Outline: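 Baculovirus/Sf9-expressed, Ni-purified MAT2A homodimer preincubated with compound 60 min at 25 °C, then reacted 60 min at 25 °C with substrate mix of 500 μM ATP and 400 μM L-methionine, pH 7.0 (mix, not final levels). Phosphate released with SAM measured by PiColorLock Gold against phosphate standard curve.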

[1] = test system: SAM in HCT116 MTAP-deleted cells; assay: Cellular assay of target engagement (SAM), LC-MS/MS; assay type: cell-based, human; settings: Homo sapiens, HCT-116, Table 5a, 72 h, read-out: Cell 72 h SAM Inhibition (MTAP −/−)
Outline: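 HCT116 cells with MTAP deleted were treated with compound for 72 h at 37°C/5% CO2. After quenching lysis in cold 80% methanol with 1 M acetic acid, SAM was quantified by LC-MS/MS against a d3-SAM internal standard.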

HCT116 MTAP-/- = assay: Inhibition of cellular proliferation (Cell Titer Glo), HCT116 MTAP-/-; assay type: cell-based, human; settings: Homo sapiens, HCT-116, 96 h, Table 5a, 4 days, read-out: 4 Day Relative Growth Inhibition (MTAP −/−)
Outline: (§1)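 Isogenic HCT116 MTAP+/+ and MTAP−/− cells were plated, treated with MAT2A inhibitor after 24 h, and incubated 4 days at 37 °C. Proliferation was read by CellTiter-Glo ATP luminescence, blank-subtracted and normalized to 0.2% DMSO control.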

HCT116 MTAP+/+ = assay: Inhibition of cellular proliferation (Cell Titer Glo), HCT116 MTAP+/+; assay type: cell-based; settings: Homo sapiens, HCT-116, 96 h, Table 5a, 4 days, read-out: 4 Day Relative Growth Inhibition (MTAP +/+)
Outline: as §1

T1 sequence (P31153 whole entry): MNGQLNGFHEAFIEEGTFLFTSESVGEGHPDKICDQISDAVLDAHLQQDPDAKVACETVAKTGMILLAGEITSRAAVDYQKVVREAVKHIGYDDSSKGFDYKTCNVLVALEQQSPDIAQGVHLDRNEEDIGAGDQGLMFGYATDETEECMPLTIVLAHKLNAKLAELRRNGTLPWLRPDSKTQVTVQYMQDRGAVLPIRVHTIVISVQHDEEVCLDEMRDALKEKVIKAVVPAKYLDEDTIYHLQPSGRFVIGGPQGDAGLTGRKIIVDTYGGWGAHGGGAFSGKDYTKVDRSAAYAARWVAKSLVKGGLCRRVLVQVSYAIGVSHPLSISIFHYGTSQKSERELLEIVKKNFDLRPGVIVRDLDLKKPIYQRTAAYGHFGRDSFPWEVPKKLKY

Row | Compound | IC50 (MAT2A homodimer) [nM] | IC50 [1] [nM] | IC50 (HCT116 MTAP-/-) [nM] | IC50 (HCT116 MTAP+/+) [nM]
1 | [2H]C([2H])([2H])Oc1ccc(N2C(=O)N(c3ccc4nc(C)n(C)c4c3)Cc3ccc(OCC(F)F)nc32)cc1 [Example 401, 7-(2,2-difluoroethoxy)-3-(1,2-dimethyl-1H-benzo[d]imidazol-6-yl)-1-(4-(methoxy-d3)phenyl)-3,4-dihydropyrido[2,3-d]pyrimidin-2(1H)-one] | < 100 | < 100 | < 100 | > 1000
2 | [2H]C([2H])([2H])Oc1ccc(N2C(=O)N(c3ccc4nn(C)cc4c3)Cc3cnc(NCC(F)F)nc32)cc1 [Example 420, 7-((2,2-difluoroethyl)amino)-1-(4-(methoxy-d3)phenyl)-3-(2-methyl-2H-indazol-5-yl)-3,4-dihydropyrimido[4,5-d]pyrimidin-2(1H)-one] | < 100 | < 100 | 100 to 1000 | 100 to 1000
3 | Cn1cc2cc(N3Cc4ncc(OCC(F)F)nc4N(c4ccc(OC(F)F)cc4)C3=O)ccc2n1 [Example 182, 7-(2,2-difluoroethoxy)-1-(4-(difluoromethoxy)phenyl)-3-(2-methyl-2H-indazol-5-yl)-3,4-dihydropteridin-2(1H)-one] | < 100 | < 100 | 100 to 1000 | 100 to 1000
4 | O=C1N(c2ccc3ncsc3c2)Cc2ccc(OCC(F)F)nc2N1c1ccc(OC(F)F)cc1 [Example 408, 3-(benzo[d]thiazol-6-yl)-7-(2,2-difluoroethoxy)-1-(4-(difluoromethoxy)phenyl)-3,4-dihydropyrido[2,3-d]pyrimidin-2(1H)-one] | < 100 | < 100 | 100 to 1000 | > 1000

Next, values leading:

Row | IC50 (MAT2A homodimer) [nM] | IC50 [1] [nM] | IC50 (HCT116 MTAP-/-) [nM] | IC50 (HCT116 MTAP+/+) [nM] | Compound
5 | < 100 | < 100 | 100 to 1000 | 100 to 1000 | CCOc1ccc2c(n1)N(c1ccc(-c3nnc[nH]3)cc1)C(=O)N(c1ccc(OC)cc1)C2 [Example 155, 1-(4-(4H-1,2,4-triazol-3-yl)phenyl)-7-ethoxy-3-(4-methoxyphenyl)-3,4-dihydropyrido[2,3-d]pyrimidin-2(1H)-one]
6 | < 100 | < 100 | < 100 | > 1000 | [2H]C([2H])([2H])Oc1ccc(N2C(=O)N(c3ccc4nn(CCOC)cc4c3)Cc3ccc(OCC(F)F)nc32)cc1 [Example 125, 7-(2,2-difluoroethoxy)-3-(2-(2-methoxyethyl)-2H-indazol-5-yl)-1-(4-methoxy-d3-phenyl)-3,4-dihydropyrido[2,3-d]pyrimidin-2(1H)-one]
7 | < 100 | 100 to 1000 | 100 to 1000 | > 1000 | Cn1cc2cc(N3Cc4cc(F)c(OCC(F)F)nc4N(c4ccc(OC(F)F)cc4)C3=O)ccc2n1 [Example 184]
8 | < 100 | < 100 | 100 to 1000 | > 1000 | CCOc1ccc2c(n1)N(c1ccc(C3CC3)nc1)C(=O)N(c1ccc3nn(C)cc3c1)C2 [Example 152, 1-(6-cyclopropylpyridin-3-yl)-7-ethoxy-3-(2-methyl-2H-indazol-5-yl)-3,4-dihydropyrido[2,3-d]pyrimidin-2(1H)-one]

— patent US20220098203A1 (priority 2018, published 2022)
